The results in this text go back to ChEMBL document CHEMBL5226375, “Synthesis and Comprehensive in Vivo Activity Profiling of Olean-12-en-28-ol, 3β-Pentacosanoate in Experimental Autoimmune Encephalomyelitis: A Natural Remyelinating and Anti-Inflammatory Agent” (J Nat Prod, 2023).

In test [1] the test system is Mus musculus. The test is described as follows: Anti-inflammatory activity against MOG35-55-induced experimental autoimmune encephalomyelitis C57BL/6 mouse model assessed as increase in serum IL-10 level at 600 mg/kg/day, ig for 14 days starting from 12th day of immunization by ELISA. Type of test: functional, organism-based. As to conditions: time 14.0 day. In general terms: In an ELISA, binding on a coated surface is turned into a signal by an enzyme label.

Test [2] deals with Mus musculus. The test is described as follows: Anti-inflammatory activity against MOG35-55-induced experimental autoimmune encephalomyelitis C57BL/6 mouse model assessed as fold change in MMP9 gene expression in brain at 300 mg/kg/day, ig for 14 days starting from 12th day of immunization by RT-qPCR analysis relative to control. Format: functional. To be noted: time 14 day. On the technique in general: Quantitative PCR measures a nucleic acid by following its amplification.

Test [3] deals with Mus musculus. The test is described as follows: Anti-inflammatory activity against MOG35-55-induced experimental autoimmune encephalomyelitis C57BL/6 mouse model assessed as fold change in TGFB1 gene expression in brain at 300 mg/kg/day, ig for 14 days starting from 12th day of immunization by RT-qPCR analysis relative to control. Format: functional. To be noted: time 14 day.

Test [4] has as its system Mus musculus. The test is described as follows: Anti-inflammatory activity against MOG35-55-induced experimental autoimmune encephalomyelitis C57BL/6 mouse model assessed as fold change in H2EB1 (HLA-DRB1) gene expression in brain at 300 mg/kg/day, ig for 14 days starting from 12th day of immunization by RT-qPCR analysis relative to control. Type of test: functional. As to conditions: time 14 day.

Test [5] concerns Mus musculus. The test is described as follows: Anti-inflammatory activity against MOG35-55-induced experimental autoimmune encephalomyelitis C57BL/6 mouse model assessed as fold change in HIF1A gene expression in brain at 300 mg/kg/day, ig for 14 days starting from 12th day of immunization by RT-qPCR analysis relative to control. Type of test: functional. As to conditions: time 14 day.

Test [6] concerns Mus musculus. The test is described as follows: Anti-inflammatory activity against MOG35-55-induced experimental autoimmune encephalomyelitis C57BL/6 mouse model assessed as fold change in YWHAH gene expression in brain at 600 mg/kg/day, ig for 14 days starting from 12th day of immunization by RT-qPCR analysis relative to control. Format: functional. To be noted: time 14 day.
For test [7], the system named is Mus musculus. The test is described as follows: Anti-inflammatory activity against MOG35-55-induced experimental autoimmune encephalomyelitis C57BL/6 mouse model assessed as reduction in CXCL9 protein expression in brain at 300 to 600 mg/kg/day, ig for 14 days starting from 12th day of immunization by western blot analysis. Type of test: functional, organism-based. As to conditions: dose 300-600 mg/kg/day, time 14.0 day. A general note: Immunoblotting shows a protein as a band on a membrane.

Test [8] relates to Mus musculus. The test is described as follows: Anti-inflammatory activity against MOG35-55-induced experimental autoimmune encephalomyelitis C57BL/6 mouse model assessed as methylation of CpG sites of SOCS5 gene promoter in brain at 600 mg/kg, ig for 14 days starting from 12th day of immunization by PCR analysis (reference value: 10.6 +/-4%). Format: functional. As to conditions: time 14 day.

Test [9] relates to Mus musculus. The test is described as follows: Anti-inflammatory activity against MOG35-55-induced experimental autoimmune encephalomyelitis C57BL/6 mouse model assessed as methylation of CpG sites of CXCL14 gene promoter in brain at 600 mg/kg, ig for 14 days starting from 12th day of immunization by PCR analysis (reference value: 46.5 +/-6%). Format: functional. As to conditions: time 14 day.

Test [10] relates to Mus musculus. The test is described as follows: Anti-inflammatory activity against MOG35-55-induced experimental autoimmune encephalomyelitis C57BL/6 mouse model assessed as fold change in MAG gene expression in brain at 600 mg/kg/day, ig for 14 days starting from 12th day of immunization by RT-qPCR analysis relative to control. Format: functional. As to conditions: time 14 day.

For test [11], the system named is Mus musculus. The test is described as follows: Anti-inflammatory activity against MOG35-55-induced experimental autoimmune encephalomyelitis C57BL/6 mouse model assessed as fold change in MBP gene expression in brain at 300 mg/kg/day, ig for 14 days starting from 12th day of immunization by RT-qPCR analysis relative to control. As to conditions: time 14 day. Format: functional.

Test [12] has as its system Mus musculus. The test is described as follows: Anti-inflammatory activity against MOG35-55-induced experimental autoimmune encephalomyelitis C57BL/6 mouse model assessed as methylation of CpG sites of IL18 gene promoter in brain at 600 mg/kg, ig for 14 days starting from 12th day of immunization by PCR analysis (reference value: 29.2 +/-8%). Type of test: functional. As to conditions: time 14 day.

The subject of test [13] is Mus musculus. The test is described as follows: Anti-inflammatory activity against MOG35-55-induced experimental autoimmune encephalomyelitis C57BL/6 mouse model assessed as fold change in IL6 gene expression in brain at 0.15 mg/kg/day, ig for 14 days starting from 12th day of immunization by RT-qPCR analysis relative to control. Type of test: functional. To be noted: time 14 day.

Test [14] deals with Mus musculus. The test is described as follows: Anti-inflammatory activity against MOG35-55-induced experimental autoimmune encephalomyelitis C57BL/6 mouse model assessed as fold change in BCL2 gene expression in brain at 0.15 mg/kg/day, ig for 14 days starting from 12th day of immunization by RT-qPCR analysis relative to control. Format: functional. As to conditions: time 14 day.

Test [15] relates to Mus musculus. The test is described as follows: Anti-inflammatory activity against MOG35-55-induced experimental autoimmune encephalomyelitis C57BL/6 mouse model assessed as methylation of CpG sites of IL11 gene promoter in brain at […], ig for 14 days starting from 12th day of immunization by PCR analysis (reference value: 61.1 +/-4%). As to conditions: time 14 day. Type of test: functional.

Test [16] concerns Mus musculus. The test is described as follows: Anti-inflammatory activity against MOG35-55-induced experimental autoimmune encephalomyelitis C57BL/6 mouse model assessed as fold change in C1S gene expression in brain at 0.3 mg/kg/day, ig for 14 days starting from 12th day of immunization by RT-qPCR analysis relative to control. Format: functional. To be noted: time 14 day.
The test system of test [17] is Mus musculus. The test is described as follows: Anti-inflammatory activity against MOG35-55-induced experimental autoimmune encephalomyelitis C57BL/6 mouse model assessed as fold change in TGFB1 gene expression in brain at 0.15 mg/kg/day, ig for 14 days starting from 12th day of immunization by RT-qPCR analysis relative to control. Type of test: functional. To be noted: time 14 day.

Test [18] relates to Mus musculus. The test is described as follows: Anti-inflammatory activity against MOG35-55-induced experimental autoimmune encephalomyelitis C57BL/6 mouse model assessed as fold change in TNF-alpha gene expression in brain at 0.15 mg/kg/day, ig for 14 days starting from 12th day of immunization by RT-qPCR analysis relative to control. Type of test: functional. As to conditions: time 14 day.

For test [19], the system named is Mus musculus. The test is described as follows: Anti-inflammatory activity against MOG35-55-induced experimental autoimmune encephalomyelitis C57BL/6 mouse model assessed as fold change in CXCL9 gene expression in brain at 0.3 mg/kg/day, ig for 14 days starting from 12th day of immunization by RT-qPCR analysis relative to control. Format: functional. To be noted: time 14 day.

In test [20] the test system is Mus musculus. The test is described as follows: Anti-inflammatory activity against MOG35-55-induced experimental autoimmune encephalomyelitis C57BL/6 mouse model assessed as upregulation of MBP protein expression in brain at 0.15 to 0.3 mg/kg/day, ig for 14 days starting from 12th day of immunization by western blot analysis. Type of test: functional, organism-based. To be noted: dose 0.15-0.3 mg/kg/day, time 14.0 day.

For test [21], the system named is Mus musculus. The test is described as follows: Anti-inflammatory activity against MOG35-55-induced experimental autoimmune encephalomyelitis C57BL/6 mouse model assessed as reduction in serum monokines level by measuring reduction in IL-1B level at 0.3 mg/kg/day, ig for 14 days starting from 12th day of immunization by ELISA. Type of test: functional, organism-based. As to conditions: time 14.0 day.

Test [22] relates to Mus musculus. The test is described as follows: Anti-inflammatory activity against MOG35-55-induced experimental autoimmune encephalomyelitis C57BL/6 mouse model assessed as fold change in TGFB1 gene expression in brain at 0.3 mg/kg/day, ig for 14 days starting from 12th day of immunization by RT-qPCR analysis relative to control. Format: functional. To be noted: time 14 day.

SMILES strings stand for the structures. Active and inactive are the calls of the source. The rule behind the calls is not given here.

In the case of `CCCCCCCCCCCCCCCCCCCCCCCCC(=O)O[C@H]1CC[C@]2(C)[C@H]3CC=C4[C@@H]5CC(C)(C)CC[C@]5(CO)CC[C@@]4(C)[C@]3(C)CC[C@H]2C1(C)C`, the result with Mus musculus [1] and in the test on Mus musculus [7] was Active. The “fold change (FC)” value in the test on Mus musculus [2] is 1.42; with Mus musculus [3] it was -1.51; in the test with Mus musculus [4], 2.83; in the test with Mus musculus [5] it was 1.92; in the test on Mus musculus [6] it was -1.78; with Mus musculus [10] it was -1.18. For the same compound, the “fold change (FC)” value in the test with Mus musculus [11] stood at 1.01. The figures for the Activity with Mus musculus [8], with Mus musculus [9] and in the test on Mus musculus [12] were 9.3%, 65.3% and 40.5%, respectively.
Regarding `CCCCCCCCc1ccc(CCC(N)(CO)CO)cc1` [FINGOLIMOD], the “fold change (FC)” value in the test on Mus musculus [13] is recorded as 4.34; with Mus musculus [14] it was 2.24; in the test on Mus musculus [16], 2.12; with Mus musculus [17], 1.86; in the test with Mus musculus [18], 2.21; with Mus musculus [19], -1.12. The “fold change (FC)” value in the test on Mus musculus [22] was determined as 10.7. Moreover, the Activity with Mus musculus [15] was 36.2%. Moreover, the outcome in the test on Mus musculus [20] was inactive. Also, the result with Mus musculus [21] was Active.
